In patent EP1075186B1, “METHOD OF HSV PROPHYLAXIS” (The Children's Hospital Research Foundation, priority 1998, dated 1999):

Assays:
[1] = test system: human foreskin fibroblast (HFF) cell monolayers; assay: Toxicity effects controls (sham-inoculated compound treated HFF monolayers); type: cell-based; conditions: for TOXICITY EFFECTS CONTROL: Experiment 4, Table 10
Text: Sham-incolulated, non-treated HFF cell monolayers were included along with the drug-treated monolayers as "cell monolayer controls". • 1. HSV-1 inoculated, non-compound treated HFF monolayers were included as "positive controls"; and • 2.
In the tables, the symbols have the meaning indicated: + = toxic; - = no toxicity; +/- = mild toxicity; ND = not done; T = toxicity effects interfered with CPE rating; CPE = cytopathic effect.

VZV = assay: In vitro assay with VZV on HFF cell monolayers; type: cell-based; conditions: Example 2, Table 17, 0.1 mg/ml, footnote: this toxicity observation is questionable
Description: VZV was grown to a CPE level […] of 3-4 + on HFF cell monolayers. The VZV was scraped from the flask, centrifuged and the cell pellet was resuspended in 10 ml of complete medium. 100 to 200 µl of the VZV cell associated inoculum was inoculated onto confluent HFF cell monolayers by absorption for 60 minutes at 37°C. After absorption of the virus, the inoculum was aspirated from the cell monolayers.
The VZV-infected monolayers were rehydrated with medium containing the appropriate concentrations of compounds to be tested. All monolayers were incubated at 37°C. Development of VZV cytopathology was monitored daily for 7 days by inverted light microscopy. Titers were calculated by multiple regression analysis.

[2] = 0.001 mg/ml, 24 hrs post incubation
[3] = 0.001 mg/ml, 48 hrs post incubation
[4] = 0.01 mg/ml, 24 hrs post incubation
[5] = 0.01 mg/ml, 48 hrs post incubation
[6] = 0.1 mg/ml, 24 hrs post incubation
[7] = 0.1 mg/ml, 48 hrs post incubation
[8] = 0.5 mg/ml, 24 hrs post incubation
[9] = 0.5 mg/ml, 48 hrs post incubation
[10] = 1 mg/ml, 24 hrs post incubation
[11] = 1 mg/ml, 48 hrs post incubation
[12] = 5 mg/ml, 24 hrs post incubation
[13] = 5 mg/ml, 48 hrs post incubation

## CC1=[N+]2CC[N+]3=C(C)C=C(c4ccccc4)[O][Co-3]23([n+]2cc[nH]c2C)([n+]2cc[nH]c2C)[O]C(c2ccccc2)=C1 [Compound 102]
[1]; [2]
  TOXICITY EFFECTS CONTROL: -
[1]; [3]
  TOXICITY EFFECTS CONTROL: -
[1]; [4]
  TOXICITY EFFECTS CONTROL: -
[1]; [5]
  TOXICITY EFFECTS CONTROL: -
[1]; [6]
  TOXICITY EFFECTS CONTROL: -
[1]; [7]
  TOXICITY EFFECTS CONTROL: -
[1]; [8]
  TOXICITY EFFECTS CONTROL: -
[1]; [9]
  TOXICITY EFFECTS CONTROL: -
[1]; [10]
  TOXICITY EFFECTS CONTROL: +/-
[1]; [11]
  TOXICITY EFFECTS CONTROL: +/-
[1]; [12]
  TOXICITY EFFECTS CONTROL: +/-
[1]; [13]
  TOXICITY EFFECTS CONTROL: +

## CC1=CC(C)=[N+]2CC[N+]3=C(C)C=C(C)[O][Co-3]23([n+]2c[nH]c(C)c2)([n+]2c[nH]c(C)c2)[O]1 [Compound 97]
[1]; [2]
  TOXICITY EFFECTS CONTROL: -
[1]; [3]
  TOXICITY EFFECTS CONTROL: -
[1]; [4]
  TOXICITY EFFECTS CONTROL: -
[1]; [5]
  TOXICITY EFFECTS CONTROL: -
[1]; [6]
  TOXICITY EFFECTS CONTROL: +/-
[1]; [7]
  TOXICITY EFFECTS CONTROL: +/-
[1]; [8]
  TOXICITY EFFECTS CONTROL: -
[1]; [9]
  TOXICITY EFFECTS CONTROL: -
[1]; [10]
  TOXICITY EFFECTS CONTROL: +/-
[1]; [11]
  TOXICITY EFFECTS CONTROL: +/-
[1]; [12]
  TOXICITY EFFECTS CONTROL: +/-
[1]; [13]
  TOXICITY EFFECTS CONTROL: +

## CC1=C(Cl)C(C)=[N+]2CC[N+]3=C(C)C(Cl)=C(C)[O][Co-3]23([n+]2cc[nH]c2)([n+]2cc[nH]c2)[O]1 [Compound 93]
[1]; Experiment 3, Table 7, 0.001 mg/ml, 24 hrs post incubation
  TOXICITY EFFECTS CONTROLS: -
[1]; Experiment 3, Table 7, 0.001 mg/ml, 48 hrs post incubation
  TOXICITY EFFECTS CONTROLS: -
[1]; Experiment 3, Table 7, 0.01 mg/ml, 24 hrs post incubation
  TOXICITY EFFECTS CONTROLS: -
[1]; Experiment 3, Table 7, 0.01 mg/ml, 48 hrs post incubation
  TOXICITY EFFECTS CONTROLS: -
[1]; Experiment 3, Table 7, 0.1 mg/ml, 24 hrs post incubation
  TOXICITY EFFECTS CONTROLS: -
[1]; Experiment 3, Table 7, 0.1 mg/ml, 48 hrs post incubation
  TOXICITY EFFECTS CONTROLS: +/-
[1]; Experiment 3, Table 7, 0.5 mg/ml, 24 hrs post incubation
  TOXICITY EFFECTS CONTROLS: -
[1]; Experiment 3, Table 7, 0.5 mg/ml, 48 hrs post incubation
  TOXICITY EFFECTS CONTROLS: -
[1]; Experiment 3, Table 7, 1 mg/ml, 24 hrs post incubation
  TOXICITY EFFECTS CONTROLS: -
[1]; Experiment 3, Table 7, 1 mg/ml, 48 hrs post incubation
  TOXICITY EFFECTS CONTROLS: -
[1]; Experiment 3, Table 7, 5 mg/ml, 24 hrs post incubation
  TOXICITY EFFECTS CONTROLS: +/-
[1]; Experiment 3, Table 7, 5 mg/ml, 48 hrs post incubation
  TOXICITY EFFECTS CONTROLS: +/-
[1]; Experiment 5, Table 12, 48 Hours Post Incubation, 0.001 mg/ml
  TOXICITY EFFECTS CONTROLS: -
[1]; Experiment 5, Table 12, 48 Hours Post Incubation, 0.01 mg/ml
  TOXICITY EFFECTS CONTROLS: -
[1]; Experiment 5, Table 12, 48 Hours Post Incubation, 1 mg/ml
  TOXICITY EFFECTS CONTROLS: +/-
[1]; Experiment 5, cell rounding, detaching from the monolayer, increased granularity, loss of normal morphology
  toxicity: more pronounced in the 0.5 and the 0.1 mg/ml concentrations
VZV
  VIRUCIDAL EFFICACY 7 Days Post Inoculation Efficacy: T?
